Source: paper PMC12567098, “Multi-Kinase Inhibition by New Quinazoline–Isatin Hybrids: Design, Synthesis, Biological Evaluation and Mechanistic Studies” (Pharmaceuticals, 2025)

Key:
[1] = tested on: WI38; test: MTT cytotoxicity assay, normal fibroblast WI38; assay type: cell-based; conditions: Homo sapiens, WI-38, 48 h, normal fibroblast cell line WI38
Text: (§1) Doxorubicin and sunitinib were used as positive controls for comparison.
(§2) The MTT assay is widely used to measure cell proliferation, cell viability, and cytotoxicity. It is based on reducing MTT dye into formazan crystals by living cells, determining mitochondrial activity.
(§3) 3.4. Biological Screening
(§4) Four cancer celllines; Hepatocellular carcinoma (HepG2), Breast adenocarcinoma (MCF-7), Breast adenocarcinoma […]
(§5) from American Type Culture Collection (ATCC, USA) via Holding company for biological products and vaccines (VACSERA), Cairo, Egypt. Antibiotic solutions and sterilesolutions were purchased from Sigma-Aldrich.
(§6) 3.4.2. Cytotoxicity Assay […]
(§7) dimethylthiazol-2-yl)-2,5-diphenyltetrazolium bromide) assay.[41–43] MTT assay is widely used to measure cell proliferation, cell viability, and cytotoxicity. It is based on reducing MTT dye into formazan crystals by living cells, determining mitochondrial activity.[44] For the assay, cells were seeded in Dulbecco’s modified minimum essential medium (DMEM) at a density of 1.0× 10^4 cells/well in 96-well plates, supplemented with 10% FBS and 5% CO2 at 37 °C for 24 h. To each well, a test compound was added at different concentrations .Each concentration was examined three times. Then the cells were treated with the compounds at 37 °C under 5 % CO2 for 48 h. Following this, MTT dye was added to each well at a final concentration of 0.5 mg/ml. Cells were treated with this tetrazolium dye for 4 h. Next, […]
(§8) dissolved by adding 100 µl dimethyl sulfoxide (DMSO), and the absorbance in each well was recorded at 570 nm in a […]
(§9) Absorbance at 570nm directly correlates with cell viability. IC50 (μM) values were determined using Graph Pad Prism software version 5 (Graph Pad Software Inc, CA). The cells were also treated with Doxorubicin; a standard anticancer drug used as positive control.

[2] = tested on: HepG2; test: MTT cytotoxicity assay, HepG2; assay type: cell-based; conditions: Homo sapiens, 48 h
Procedure: (§10) The synthesized isatin–quinazoline compounds (6a–d) were assessed for their cytotoxicity against four cancer cell lines, namely, hepatocellular carcinoma HepG2, breast carcinoma MCF-7, breast adenocarcinoma MDA-MB-231, and cervical carcinoma HeLa, using an MTT colorimetric assay. Doxorubicin and sunitinib were used as positive controls for comparison. The antiproliferative activities are expressed as the median growth inhibitory concentration (IC50) in micromolar range and are described in Table 1.
as §2, with “Cytotoxicity of the synthesized compounds 6a–d was assessed by performing a colorimetric MTT (3-(4,5-dimethylthiazol-2-yl)-2,5-diphenyltetrazolium bromide) assay. The” for “The”
as §3
(§11) Four cancer celllines; Hepatocellular carcinoma (HepG2), Breast adenocarcinoma (MCF-7), Breast adenocarcinoma (MDA-MB-231), and Cervical carcinoma (HeLa) and normal fibroblast cell line (WI38) used in this study were obtained from American Type Culture Collection (ATCC, USA) via Holding company for biological products and vaccines (VACSERA), Cairo, Egypt. Antibiotic solutions and sterilesolutions were purchased from Sigma-Aldrich.
(§12) 3.4.2. Cytotoxicity Assay
(§13) Cytotoxicity of the synthesized compounds 6a-d was done by performing a colorimetric MTT ( 3-(4,5-dimethylthiazol-2-yl)-2,5-diphenyltetrazolium bromide) assay.[41–43] MTT assay is widely used to measure cell proliferation, cell viability, and cytotoxicity. It is based on reducing MTT dye into formazan crystals by living cells, determining mitochondrial activity.[44] For the assay, cells were seeded in Dulbecco’s modified minimum essential medium (DMEM) at a density of 1.0× 10^4 cells/well in 96-well plates, supplemented with 10% FBS and 5% CO2 at 37 °C for 24 h. To each well, a test compound was added at different concentrations .Each concentration was examined three times. Then the cells were treated with the compounds at 37 °C under 5 % CO2 for 48 h. Following this, MTT dye was added to each well at a final concentration of 0.5 mg/ml. Cells were treated with this tetrazolium dye for 4 h. Next, purple crystals of formazan were noticed in each well, formed as a metabolic product of MTT. These crystals were dissolved by adding 100 µl dimethyl sulfoxide (DMSO), and the absorbance in each well was recorded at 570 nm in a microplate reader (EXL 800, USA). Absorbance at 570nm directly correlates with cell viability. IC50 (μM) values were determined using Graph Pad Prism software version 5 (Graph Pad Software Inc, CA). The cells were also treated with Doxorubicin; a standard anticancer drug used as positive control.

[3] = tested on: MCF-7; test: MTT cytotoxicity assay, MCF-7; assay type: cell-based; conditions: Homo sapiens, MCF7, 48 h
Text: as §1, §2, §3, §4, §5, §6, §7, §8, §9

[4] = tested on: MDA-MB-231; test: MTT cytotoxicity assay, MDA-MB-231; assay type: cell-based; conditions: Homo sapiens, 48 h
Procedure: as §10
as §2, with “Cytotoxicity of the synthesized compounds 6a–d was assessed by performing a colorimetric MTT (3-(4,5-dimethylthiazol-2-yl)-2,5-diphenyltetrazolium bromide) assay. The” for “The”
as §3, §11, §12, §13

[5] = tested on: HeLa; test: MTT cytotoxicity assay, HeLa; assay type: cell-based; conditions: Homo sapiens, 48 h
Text: as §1, §2, §3, §4, §5, §6, §7, §8, §9

[6] = tested on: HepG2 cells; test: Propidium iodide flow cytometry cell cycle analysis; assay type: cell-based; conditions: HepG2, 2.6 μM, 24 h
Procedure: Its impacts on cell cycle progression and induction of apoptosis were investigated. The effect of compound 6c on the regulation of the cell cycle progression was studied using a Propidium Iodide Flow Cytometry Kit assay. Alterations in the cell cycle were recorded after the treatment of HepG2 cells with 2.6 μM of compounds 6c, chosen for its excellent antiproliferative activities within 24 h.
Cell cycle arrest and distribution were evaluated using a Propidium Iodide Flow Cytometry Kit (ab139418, Abcam, Cambridge, MA, USA) followed by flow cytometry analysis.
3.4.3. Flow cytometry cell cycle analysis
Cell cycle arrest and distribution were evaluated using the Propidium Iodide Flow Cytometry Kit (ab139418, Abcam) followed by flow cytometry analysis.[45,46] First, HepG2 cells were cultured at a density of 2 × 10^5/well for 24 h in the presence of tested newly synthesized compounds 6c (2.6 μM) (control cells were left untreated and both measurements were done in triplicate). Then, the attached cells were supplemented with trypsin, washed with ice-cold PBS, centrifuged, and fixed using ice -cold 70% ethanol. Next, cells were re -suspended and stored at +4 °C for at least 2 h. After that, cells were incubated with 200 μL 1X Propidium Iodide (PI) + RNase Staining Solution for 30 min at 37 °C in the dark. The DNA content in each cell nucleus was determined by Epics XL -MCL™ flow cytometer (Beckman -Coulter, USA). Finally, cell cycle phase distribution was analyzed using Flowing software 2.5.1 (Turku Centre for Biotechnology, University of Turku, Turku, Finland). […]
University of Turku, Turku, Finland).

[7] = tested on: HepG2 cells; test: Annexin V-FITC/PI dual-staining apoptosis assay; assay type: cell-based; conditions: HepG2, 2.6 μM (IC50), 24 h
Procedure: Apoptosis can be detected by measuring translocated phosphatidylserine (PS) from the interior to the surface of the cell membrane. Therefore, an annexin V-FITC/PI (fluorescein–isothiocyanate/propidium iodide) dual staining flow cytometric assay was carried out for compound 6c to investigate the mechanism of cell death induced by the assessed compound.
The apoptosis assay was performed with an annexin V-FITC/PI double staining apoptosis detection kit (K101, BioVision Inc., Mountain View, CA, USA) using a flow cytometer. Experimental procedures are described in detail in theSupplementary Information. […]
3.4.4. Annexin V-FITC Dual-Staining Apoptosis Assay
Apoptosis assay was performed with an Annexin V-FITC / PI double staining apoptosis detection kit (K101, BioVision Inc, Mountain View, CA, USA) using a flow cytometer.[47,48] […]
concentration (2.6 μM) for 24 h. After treatment, the cells were collected, washed two times with PBS, and resuspended in 500 µL binding buffer. Next, annexin V-FITC (5 µL ) and propidium iodide (PI) 5 µL were intruduced to the suspension and the cells were left in the dark for 15 min at room temperature. Samples were then recorded by Epics XL-MCL™ flow cytometer (Beckman- Coulter, USA) and Flowing software (Turku Centre for Biotechnology, University of Turku, Turku, Finland).

[8] = tested on: Bax; test: RT-qPCR gene expression analysis, Bax; assay type: cell-based; conditions: HepG2, RT-qPCR, fold vs untreated = 1
Text: (§14) One significant anticancer mechanism is apoptosis. Drugs that induce apoptosis cause simultaneous or subsequent activation of death receptor systems, mitochondrial dysfunction, and caspase proteolytic processing. Thus, the cell death pathway may occur in several locations. In this study, the alteration in Bax, Bcl-2, and caspase-3 and 9 gene expression following the stimulation of apoptosis by 6c in HepG2 cells using the RT-qPCR method and staurosporine as a positive control is reported in Table 4.
(§15) 3.4.5. Gene Expression Analysis
(§16) After the RNA extraction,
(§17) reverse transcriptase enzyme.
(§18) The amplification reactions
(§19) The data were analyzed using a […]

[9] = tested on: Bcl-2; test: RT-qPCR gene expression analysis, Bcl-2; assay type: cell-based; conditions: HepG2, RT-qPCR, fold vs untreated = 1
Text: as §14, §15, §16, §17, §18, §19

[10] = tested on: Caspase-3; test: RT-qPCR gene expression analysis, caspase-3; assay type: cell-based; conditions: HepG2, RT-qPCR, fold vs untreated = 1
Text: as §14, §15, §16, §17, §18, §19

[11] = tested on: Caspase-9; test: RT-qPCR gene expression analysis, caspase-9; assay type: cell-based; conditions: HepG2, RT-qPCR, fold vs untreated = 1
Text: as §14, §15, §16, §17, §18, §19

[12] = target: T1, CDK2 (Homo sapiens, UniProt P24941); test: In vitro CDK2 kinase inhibitory assay (BPS kit, Kinase-Glo); assay type: biochemical; conditions: 40 min at 30 °C
T1 construct: purchased BPS Biosciences, San Diego, CA, USA

[13] = target: T2, VEGFR-2 (Homo sapiens, UniProt P35968); test: In vitro VEGFR-2 kinase inhibitory assay (BPS kit, Kinase-Glo); assay type: biochemical; conditions: 40 min at 30 °C
T2 construct: purchased BPS Biosciences, San Diego, CA, USA

[14] = target: EGFR (Homo sapiens, UniProt P00533); test: In vitro EGFR kinase inhibitory assay (BPS kit, Kinase-Glo)
Procedure: (§20) In vitro CDK2, EGFR, VEGFR -2, and HER2 Inhibitory Assays
(§21) using CDK2, EGFR, VEGFR -2, and HER2 Kinase Assay Kit (BPS Biosciences, San Diego, CA).[50] At first, CDK2, EGFR,
(§22) initi-ate the catalytic function of the enzymes. Detection reagent (Kinase-Glo® Max reagent) was the added to stop
(§23) the reaction, followed by incubation at room temperature for 15 min. Then the IC50 values were calculated by
(§24) measuring luminescence signal at 450 nm using a plate reader (Tecan Spark® 10M, Männedorf, Switzerland). All
(§25) assays were carried out based on protocol from manufacture. All samples and controls were tested in duplicate.

[15] = target: HER2 (Homo sapiens, UniProt P04626); test: In vitro HER2 kinase inhibitory assay (BPS kit, Kinase-Glo); conditions: read-out: IC50 HER2, 40 min at 30 °C
HER2, sequence (P04626 23-1255): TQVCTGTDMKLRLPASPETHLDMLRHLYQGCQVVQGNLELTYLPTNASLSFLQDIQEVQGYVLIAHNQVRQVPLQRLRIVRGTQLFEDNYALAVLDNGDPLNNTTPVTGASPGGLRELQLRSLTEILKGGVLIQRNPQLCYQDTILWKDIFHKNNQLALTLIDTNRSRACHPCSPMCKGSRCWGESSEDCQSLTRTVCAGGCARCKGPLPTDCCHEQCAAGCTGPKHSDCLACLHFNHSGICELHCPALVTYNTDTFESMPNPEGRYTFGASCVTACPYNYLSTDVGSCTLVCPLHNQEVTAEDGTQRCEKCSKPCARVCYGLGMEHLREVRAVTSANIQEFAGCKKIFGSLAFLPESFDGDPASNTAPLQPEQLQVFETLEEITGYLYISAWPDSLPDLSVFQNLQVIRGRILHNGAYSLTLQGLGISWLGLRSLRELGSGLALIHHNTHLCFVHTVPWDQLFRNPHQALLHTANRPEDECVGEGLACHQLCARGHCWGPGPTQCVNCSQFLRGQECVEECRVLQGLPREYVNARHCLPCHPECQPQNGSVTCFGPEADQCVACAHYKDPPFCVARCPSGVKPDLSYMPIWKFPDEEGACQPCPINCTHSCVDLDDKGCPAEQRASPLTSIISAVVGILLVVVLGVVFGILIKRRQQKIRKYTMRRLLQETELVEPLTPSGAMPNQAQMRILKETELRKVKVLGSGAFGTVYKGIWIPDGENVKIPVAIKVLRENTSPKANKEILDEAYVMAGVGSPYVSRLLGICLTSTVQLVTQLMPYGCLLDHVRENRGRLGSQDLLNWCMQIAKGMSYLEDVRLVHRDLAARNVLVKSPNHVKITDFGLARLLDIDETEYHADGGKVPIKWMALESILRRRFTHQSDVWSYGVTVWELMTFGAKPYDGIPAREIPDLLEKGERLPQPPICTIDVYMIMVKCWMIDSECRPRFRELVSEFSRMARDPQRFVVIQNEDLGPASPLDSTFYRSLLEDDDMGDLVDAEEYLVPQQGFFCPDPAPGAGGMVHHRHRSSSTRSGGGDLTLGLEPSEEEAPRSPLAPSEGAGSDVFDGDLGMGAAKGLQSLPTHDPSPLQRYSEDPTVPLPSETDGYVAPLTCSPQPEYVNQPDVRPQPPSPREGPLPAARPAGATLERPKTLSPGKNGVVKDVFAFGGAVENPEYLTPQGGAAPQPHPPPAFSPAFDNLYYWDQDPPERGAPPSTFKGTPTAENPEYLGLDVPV
Procedure: as §20, §21, §22, §23, §24, §25

EGFR, sequence (P00533 25-1210): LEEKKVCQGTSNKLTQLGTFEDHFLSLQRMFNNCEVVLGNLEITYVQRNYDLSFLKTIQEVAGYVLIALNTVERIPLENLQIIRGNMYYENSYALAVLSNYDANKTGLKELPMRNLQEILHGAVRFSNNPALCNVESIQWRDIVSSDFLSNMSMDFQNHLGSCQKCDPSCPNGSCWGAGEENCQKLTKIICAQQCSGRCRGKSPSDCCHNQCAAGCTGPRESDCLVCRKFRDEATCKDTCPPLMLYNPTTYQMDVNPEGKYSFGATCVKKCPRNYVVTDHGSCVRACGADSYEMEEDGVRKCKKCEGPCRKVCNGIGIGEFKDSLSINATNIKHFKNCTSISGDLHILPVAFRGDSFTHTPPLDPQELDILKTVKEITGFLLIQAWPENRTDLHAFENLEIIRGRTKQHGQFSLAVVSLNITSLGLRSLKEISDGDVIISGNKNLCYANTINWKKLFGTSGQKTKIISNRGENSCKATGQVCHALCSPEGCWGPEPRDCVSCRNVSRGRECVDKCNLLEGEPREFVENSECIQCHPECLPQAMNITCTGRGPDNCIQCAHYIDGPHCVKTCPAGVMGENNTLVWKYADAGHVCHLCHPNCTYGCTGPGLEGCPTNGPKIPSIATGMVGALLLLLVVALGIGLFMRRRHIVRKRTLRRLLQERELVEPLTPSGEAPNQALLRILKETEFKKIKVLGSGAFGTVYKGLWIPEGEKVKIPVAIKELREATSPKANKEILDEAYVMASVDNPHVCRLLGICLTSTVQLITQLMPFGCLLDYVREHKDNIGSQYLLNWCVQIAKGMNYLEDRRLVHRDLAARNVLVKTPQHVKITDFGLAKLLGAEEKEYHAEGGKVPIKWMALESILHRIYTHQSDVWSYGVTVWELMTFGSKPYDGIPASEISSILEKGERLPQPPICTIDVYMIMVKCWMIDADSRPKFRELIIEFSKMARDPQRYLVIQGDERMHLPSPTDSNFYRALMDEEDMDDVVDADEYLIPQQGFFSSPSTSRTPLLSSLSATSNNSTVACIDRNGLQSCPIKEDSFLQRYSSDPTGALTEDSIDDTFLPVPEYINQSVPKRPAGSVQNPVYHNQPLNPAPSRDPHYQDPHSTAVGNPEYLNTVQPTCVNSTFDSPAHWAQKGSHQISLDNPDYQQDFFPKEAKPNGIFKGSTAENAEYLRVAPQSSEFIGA
T2 sequence (P35968 20-1356): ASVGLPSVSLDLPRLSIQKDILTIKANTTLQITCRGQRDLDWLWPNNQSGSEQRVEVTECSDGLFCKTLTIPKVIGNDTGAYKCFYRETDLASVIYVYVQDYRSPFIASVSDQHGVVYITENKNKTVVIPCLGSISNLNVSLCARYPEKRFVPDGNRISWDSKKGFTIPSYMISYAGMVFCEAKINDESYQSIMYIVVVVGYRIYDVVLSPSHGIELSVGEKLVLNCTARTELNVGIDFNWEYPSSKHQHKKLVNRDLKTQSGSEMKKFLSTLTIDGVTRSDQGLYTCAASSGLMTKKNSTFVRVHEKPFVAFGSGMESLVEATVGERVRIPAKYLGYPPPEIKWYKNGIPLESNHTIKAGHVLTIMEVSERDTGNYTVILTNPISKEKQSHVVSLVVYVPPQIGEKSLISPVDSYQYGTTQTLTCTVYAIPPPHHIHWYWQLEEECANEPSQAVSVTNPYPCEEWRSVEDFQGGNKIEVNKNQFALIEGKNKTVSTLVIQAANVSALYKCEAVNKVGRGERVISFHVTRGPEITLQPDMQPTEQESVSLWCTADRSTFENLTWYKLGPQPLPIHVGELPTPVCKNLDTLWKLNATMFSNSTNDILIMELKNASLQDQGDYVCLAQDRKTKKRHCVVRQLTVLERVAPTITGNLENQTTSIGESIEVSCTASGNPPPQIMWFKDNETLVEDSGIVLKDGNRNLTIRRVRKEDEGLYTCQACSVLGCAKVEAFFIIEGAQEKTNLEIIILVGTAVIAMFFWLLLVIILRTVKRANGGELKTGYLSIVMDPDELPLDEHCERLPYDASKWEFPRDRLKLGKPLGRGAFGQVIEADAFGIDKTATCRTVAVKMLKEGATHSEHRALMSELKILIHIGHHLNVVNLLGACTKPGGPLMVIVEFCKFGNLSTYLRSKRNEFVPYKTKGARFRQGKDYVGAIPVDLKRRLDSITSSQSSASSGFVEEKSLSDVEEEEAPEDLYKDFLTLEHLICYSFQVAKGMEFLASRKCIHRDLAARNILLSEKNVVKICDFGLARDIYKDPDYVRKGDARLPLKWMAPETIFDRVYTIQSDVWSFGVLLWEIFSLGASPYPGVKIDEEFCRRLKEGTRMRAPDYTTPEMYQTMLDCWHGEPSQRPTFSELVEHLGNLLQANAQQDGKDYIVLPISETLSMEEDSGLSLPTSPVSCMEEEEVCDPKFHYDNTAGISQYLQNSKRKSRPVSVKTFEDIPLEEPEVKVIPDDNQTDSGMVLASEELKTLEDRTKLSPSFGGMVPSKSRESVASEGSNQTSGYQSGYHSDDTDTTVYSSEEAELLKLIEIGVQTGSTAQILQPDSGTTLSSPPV

Work on `O=C1Nc2ccccc2/C1=N/NC(=O)c1ccc(Nc2ncnc3ccccc23)cc1` [Compound 6a, (Z)-N′-(2-Oxoindolin-3-ylidene)-4-(quinazolin-4-ylamino) benzohydrazide] yielded an IC50 [1] of 34.1 ± 2.6 µM, an IC50 [2] of 7.98 ± 0.6 µM and an IC50 [3] of 4.89 ± 0.3 µM. The IC50 [4] was 6.24 ± 0.5 µM and the IC50 [5] was 13.1 ± 0.9 µM.

In the case of `O=C1Nc2ccc(Cl)cc2/C1=N/NC(=O)c1ccc(Nc2ncnc3ccccc23)cc1` [Compound 6b, (Z)-N′-(5-Chloro-2-oxoindolin-3-ylidene)-4-(quinazolin-4-ylamino)benzohydrazide], the IC50 [1] is reported as greater than 100 µM, the IC50 [2] is reported as 61.4 ± 3.5 µM and the IC50 [3] is reported as 70.7 ± 3.4 µM. The IC50 [4] was 56.3 ± 3.2 µM and the IC50 [5] was 66.8 ± 3.4 µM.

`O=C1Nc2ccc(F)cc2/C1=N/NC(=O)c1ccc(Nc2ncnc3ccccc23)cc1` [Compound 6c, (Z)-N′-(5-Fluoro-2-oxoindolin-3-ylidene)-4-(quinazolin-4-ylamino)benzohydrazide] gave an IC50 [1] of 57.3 ± 3.3 µM, an IC50 [2] of 2.61 ± 0.1 µM and an IC50 [3] of 3.78 ± 0.2 µM. The IC50 [4] was 5.18 ± 0.4 µM, the IC50 [5] was 7.6 ± 0.5 µM and the “Cell Cycle Distribution (%) % Sub-G1” value [6] was 42.79%. The “Cell Cycle Distribution (%) %G0–G1” value [6] was 36.47%, the “Cell Cycle Distribution (%) %G2/M” value [6] was 9.92% and the “Cell Cycle Distribution (%) %S” value [6] was 53.61%. The Necrosis [7] was 2.94, the “Apoptosis Induction Analysis Early” value ([7]; in % (unit assumed)) was 28.64 and the “Apoptosis Induction Analysis Late” value ([7]; in % (unit assumed)) was 11.21. For the same compound, the “Apoptosis Induction Analysis Total” value ([7]; in % (unit assumed)) was 42.79, the “Protein Expression (Normalized to β-Actin) Bax” value [8] was 4.585 and the “Protein Expression (Normalized to β-Actin) Bcl-2” value [9] was 0.185. The “Protein Expression (Normalized to β-Actin) Caspase-3” value [10] was 10.13, the “Protein Expression (Normalized to β-Actin) Caspase-9” value [11] was 2.795 and the IC50 [12] was 0.183 ± 0.01 µM. The IC50 [13] was 0.076 ± 0.004 µM, the IC50 [14] was 0.083 ± 0.005 µM and the IC50 [15] was 0.138 ± 0.07 µM.

`Cc1ccc2c(c1)/C(=N/NC(=O)c1ccc(Nc3ncnc4ccccc34)cc1)C(=O)N2` [Compound 6d, (Z)-N′-(5-Methyl-2-oxoindolin-3-ylidene)-4-(quinazolin-4-ylamino)benzohydrazide] gave an IC50 [1] of 65.8 ± 3.8 µM, an IC50 [2] of 87.4 ± 4.5 µM and an IC50 [3] greater than 100 µM. For the same compound, the IC50 [4] was 82.7 ± 4.3 µM and the IC50 [5] was greater than 100 µM.

Work on `COc1cccc2c1C(=O)c1c(O)c3c(c(O)c1C2=O)C[C@@](O)(C(=O)CO)C[C@@H]3O[C@H]1C[C@H](N)[C@H](O)[C@H](C)O1` [Doxorubicin, reference compound] yielded an IC50 [2] of 4.5 ± 0.2 µM.

In the case of `CN[C@@H]1C[C@H]2O[C@@](C)([C@@H]1OC)n1c3ccccc3c3c4c(c5c6ccccc6n2c5c31)C(=O)NC4` [Staurosporine, reference compound], the “Protein Expression (Normalized to β-Actin) Bax” value [8] is reported as 6.794, the “Protein Expression (Normalized to β-Actin) Bcl-2” value [9] is reported as 0.351 and the “Protein Expression (Normalized to β-Actin) Caspase-3” value [10] is reported as 8.43. The “Protein Expression (Normalized to β-Actin) Caspase-9” value [11] was 4.614.

`CCN(CC)CCNC(=O)c1c(C)[nH]c(/C=C2\C(=O)Nc3ccc(F)cc32)c1C` [Sunitinib, reference compound] showed an IC50 [1] of 43 ± 2.9 µM, an IC50 [2] of 6.82 ± 0.5 µM and an IC50 [3] of 5.19 ± 0.4 µM. It also gave an IC50 [4] of 8.41 ± 0.7 µM and an IC50 [5] of 7.48 ± 0.6 µM.
